The target in one assay is T1, NTCP (Homo sapiens, UniProt Q14973).
T1 sequence (Q14973 1-349): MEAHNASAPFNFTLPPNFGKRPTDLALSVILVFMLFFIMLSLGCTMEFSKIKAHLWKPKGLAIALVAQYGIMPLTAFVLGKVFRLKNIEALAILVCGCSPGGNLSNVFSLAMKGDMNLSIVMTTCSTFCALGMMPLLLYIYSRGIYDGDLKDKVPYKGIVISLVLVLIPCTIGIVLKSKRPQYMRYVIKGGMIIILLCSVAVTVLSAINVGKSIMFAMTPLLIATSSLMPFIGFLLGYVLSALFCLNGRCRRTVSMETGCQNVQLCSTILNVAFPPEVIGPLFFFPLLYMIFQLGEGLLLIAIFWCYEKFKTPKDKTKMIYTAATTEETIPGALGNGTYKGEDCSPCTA
Kind of assay: Transport inhibition in NTCP-HEK293 cells.

In the next assay the target is T2, ASBT (Homo sapiens, UniProt Q12908).
T2 construct: The full-length open reading frames of NTCP, ASBT, and SOAT were cloned; expressed in transfected cells; host or cells: Flp-In T-REX HEK293 (ASBT-HEK293), tetracycline-induced
T2 sequence (Q12908 1-348): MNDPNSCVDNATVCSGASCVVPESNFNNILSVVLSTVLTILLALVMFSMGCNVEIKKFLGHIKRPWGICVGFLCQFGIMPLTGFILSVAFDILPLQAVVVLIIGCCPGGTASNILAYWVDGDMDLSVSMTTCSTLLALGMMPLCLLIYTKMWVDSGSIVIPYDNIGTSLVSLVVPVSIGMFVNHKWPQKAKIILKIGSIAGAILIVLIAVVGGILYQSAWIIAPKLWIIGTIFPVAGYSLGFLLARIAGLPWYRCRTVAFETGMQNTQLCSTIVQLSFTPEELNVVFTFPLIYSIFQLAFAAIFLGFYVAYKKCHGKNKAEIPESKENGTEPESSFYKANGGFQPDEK
Kind of assay: Transport inhibition in ASBT-HEK293 cells. The note with it: triterpenoid inhibitors, 10 min after 5 min preincubation. Format: cell-based. The procedure: (§1) Cells were washed three times with PBS and were preincubated with the respective inhibitor in sodium transport buffer for 5 min at 37°C. Uptake was initiated by adding the respective radiolabeled substrate to the well and incubating for a fixed time as indicated in the figures at 37°C. Transport was terminated by removing the transport buffer and washing five-times with ice-cold PBS. Cell monolayers were lysed in 1 N NaOH with 0.1% SDS and the cell-associated radioactivity and protein content was determined as described above. For uptake inhibition with the myr-preS1 peptide the sodium transport buffer contained additionally MEM-amino acid solution (ThermoFisher) at 1:50 dilution.
(§2) All transport or inhibition graphs were generated with GraphPad Prism 6.0 (GraphPad). Determination of IC50 values was done by nonlinear regression analysis using the equation log (inhibitor) vs. response settings. If not stated otherwise in the legends all data represent means ± SD of at least triplicate determinations of representative experiments.
(§3) FIGURE 3 Inhibition of NTCP, ASBT, and SOAT with substrate inhibitors. Transport of [^3H]TC, [^3H]TLC, and [^3H]DHEAS was analyzed in NTCP-HEK293, ASBT-HEK293, and SOAT-HEK293 cells in the presence of the substrate inhibitors TC, TLC, and DHEAS at increasing concentrations ranging from 100 nM till 1000 µM. After 5 min of preincubation with the respective inhibitory compound, 200 nM [^3H]TLC, [^3H]TC or [^3H]DHEAS were added for additional 1 min and the cell lysates were analyzed by liquid scintillation counting. Unspecific uptake of HEK293-FlpIn cells was set to 0%. Carrier-specific uptake without inhibitor was set to 100%.
(§4) Transport of [^3H]TC, [^3H]TLC, and [^3H]DHEAS was analyzed in NTCP-HEK293, ASBT-HEK293, and SOAT-HEK293 cells in the presence of different supposed non-substrate triterpenoid inhibitors as indicated at increasing concentrations ranging from 100 nM till 1000 µM. After 5 min of preincubation with the respective inhibitory compound, 1 µM [^3H]TLC, [^3H]TC or [^3H]DHEAS were added for additional 10 min at 37°C and the cell lysates were analyzed by liquid scintillation counting. Experiments performed without inhibitor were set to 100%. Means of negative controls were subtracted to calculate net transport rates (expressed as percentage of control). Data represent means ± SD of quadruplicate determinations of representative experiments.

The target of another assay is T3, SOAT (Homo sapiens, UniProt Q3KNW5).
T3 construct: The full-length open reading frames of NTCP, ASBT, and SOAT were cloned; expressed in transfected cells; host or cells: Flp-In T-REX HEK293 (SOAT-HEK293), tetracycline-induced
T3 sequence (Q3KNW5 1-377): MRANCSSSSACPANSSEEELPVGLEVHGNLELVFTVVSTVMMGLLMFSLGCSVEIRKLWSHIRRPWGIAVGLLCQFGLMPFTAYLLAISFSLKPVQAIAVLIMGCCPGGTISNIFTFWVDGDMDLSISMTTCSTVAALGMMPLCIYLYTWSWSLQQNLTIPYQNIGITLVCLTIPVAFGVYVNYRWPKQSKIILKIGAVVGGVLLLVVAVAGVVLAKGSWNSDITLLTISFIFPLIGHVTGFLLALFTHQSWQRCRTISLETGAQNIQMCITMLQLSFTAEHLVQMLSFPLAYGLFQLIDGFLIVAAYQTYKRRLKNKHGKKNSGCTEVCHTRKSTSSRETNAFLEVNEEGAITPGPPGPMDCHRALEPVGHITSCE
Kind of assay: Transport inhibition in SOAT-HEK293 cells. Format: cell-based. The following applies: triterpenoid inhibitors, 10 min after 5 min preincubation. The procedure: as §1, §2, §3, §4

A further assay deals with HDV. The note with it: in vitro; ref Kirstgen et al., 2020; cited from earlier work.

Where two headings read alike, the source gives them in different places.

As for `C=C(C)[C@@H]1CC[C@]2(C)CC[C@]3(C)[C@H](CC[C@@H]4[C@@]5(C)CCC(=O)C(C)(C)[C@@H]5CC[C@]43C)[C@@H]12` [Lupenone], the IC50 against NTCP (NTCP IC50, substrate [3H]DHEAS) was over 1000 µM; against NTCP (NTCP IC50, substrate [3H]TC, triterpenoid inhibitors, 1 µM [3H]TC, 10 min after 5 min preincubation), 240 µM; at NTCP (NTCP IC50, substrate [3H]TLC, triterpenoid inhibitors, 1 µM [3H]TLC, 10 min after 5 min preincubation) it was 11.8 µM; at ASBT (1 µM [3H]TC, read-out: ASBT IC50, substrate [3H]TC), over 1000 µM; on ASBT (1 µM [3H]TLC, read-out: ASBT IC50, substrate [3H]TLC), over 1000 µM; on SOAT (1 µM [3H]DHEAS, read-out: SOAT IC50, substrate [3H]DHEAS) it was 665 µM. Also, the IC50 on SOAT (1 µM [3H]TLC, read-out: SOAT IC50, substrate [3H]TLC) was 122 µM. The “anti-HDV activity in vitro” value in the assay with HDV is “anti-HDV activity”.
